Measured values: patent US20050042674A9, “Common ligand mimics: thiazolidinediones and rhodanines” (priority 2002, published 2005)
Where “and” joins values, the source holds several entries; their conditions need not be identical. Equal entries are not always repeated. Where two headings read alike, the source gives them in different places.

Columns and labels:
[1] = molecular target: dihydrodipicolinate reductase (DHPR) (Escherichia coli, UniProt P04036); test: DHPR kinetic assay, spectrophotometric oxidation of NADPH at 340 nm; type: biochemical; details: Examples 36/37, FIG. 16/17
Protocol: DHPR was diluted in 10 mM HEPES at a pH of 7.4. DHPS (dihydrodipicolinate synthase) was not diluted and was stored in eppindorf tubes.
The L-ASA (L-aspartate semialdehyde) solution was prepared in the following manner. […] stock solution of ASA was prepared. 100 μl of the ASA stock solution was mixed with 150 μl of concentrated NaHCO3 and 375 μl of H2O. For use in the assay, 28.8 mM L-ASA was equal to 625 μl of the solution. The L-ASA stock solution was kept at a temperature of −20° C. After dilution, the pH of the 28.8 mM solution was checked and maintained between 1 and 2.
The solution for background detection was a 945 μl solution containing 0.1 HEPES (pH 7.8), 1 mM pyruvate, 6 μM NADPH, 40 μM L-ASA, and 7 μl of 1 mg/ml DHPS at 25° C. in the volumes provided above. The sample solution was then mixed and incubated for 10 minutes. Next, 500 nM solutions of the inhibitors and enough DMSO to provide a final DMSO concentration of 5% of the total assay volume were added. The solution was mixed and incubated for an additional 6 minutes.
In DHPR samples, 5 μl of the diluted DHPR enzyme were added. The sample was mixed for 20 seconds and then the reaction was run for 10 minutes. […] Reading of the samples was continued until 300 seconds. […] The substrate was kept at a level at least 10 times the Km. The final concentration of L-ASA was about 1 mM.

[2] = molecular target: T1, alcohol dehydrogenase (ADH) (Saccharomyces cerevisiae, UniProt P00330); test: ADH kinetic assay, spectrophotometric reduction of NAD+ at 340 nm; type: biochemical, Bakers Yeast; details: Examples 36/37, FIG. 16/17
T1 construct: ADH from Bakers Yeast; from tissue; host or cells: bakers yeast
T1 sequence (P00330 1-348): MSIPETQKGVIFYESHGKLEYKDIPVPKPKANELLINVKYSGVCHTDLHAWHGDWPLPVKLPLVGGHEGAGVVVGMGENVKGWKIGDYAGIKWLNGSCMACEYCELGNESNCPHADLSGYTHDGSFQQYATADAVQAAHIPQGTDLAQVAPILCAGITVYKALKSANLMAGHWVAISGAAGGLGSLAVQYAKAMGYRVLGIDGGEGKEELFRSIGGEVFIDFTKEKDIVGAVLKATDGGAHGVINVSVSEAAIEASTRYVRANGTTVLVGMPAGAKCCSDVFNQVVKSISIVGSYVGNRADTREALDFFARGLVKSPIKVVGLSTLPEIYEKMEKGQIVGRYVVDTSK
Protocol: Solutions of 100 μl of the inhibitors in DMSO were prepared to provide a final DMSO concentration of 5% of the total assay volume. […] The reaction was then initiated with 10 μl of ADH from Bakers Yeast (3.3 μg/ml; 1:400 dilution of 1.0 mg/ml). […] Reading of the samples was continued until 300 seconds. […] The substrate was kept at a level at least 10 times the Km. The final concentration of pyruvate was about 2.5 mM.
Where only a simple read was desired, as in the case of NAD+concentration determination, 13 μl (10 M stock) of ethanol was used to drive the reaction, and 10 μl of pure enzyme (1 mg/ml) was used. NAD+was soluble at 2 mM, which allowed the concentration determination step to be skipped. In this situation, the procedure was as follows. All of the ingredients except for the enzyme were mixed together. The solution was mixed well and the absorbance at 340 nm read. The enzyme was added and read again at OD 340 after the absorbance stopped changing, generally 10 to 15 minutes after the enzyme was added.

[3] = molecular target: dihydrofolate reductase (DHFR) (UniProt P00374); test: DHFR kinetic assay, spectrophotometric oxidation of NADH at 340 nm; type: biochemical
Protocol: H2 folate was dissolved in DMSO to about 10 mM and then diluted with water to a concentration of 0.1 mM.
Solutions of 100 μl of the inhibitors in DMSO were prepared to provide a final DMSO concentration of 5% of the total assay volume. […] The oxidation reaction was then initiated with 8 μl of DHFR (0.047 mg/ml). […] Reading of the samples was continued until 300 seconds. Cuvette #1 always contained the control reaction (no inhibitor), and cuvette #2 always contained the positive control reaction in which Cibacron Blue at 3 μM was substituted for inhibitor to yield […] inhibition. The substrate was kept at a level at least 10 times the Km.

[4] = molecular target: glyceraldehyde-3-phosphate dehydrogenase (GAPDH) (Escherichia coli, UniProt P0A9B2); test: GAPDH kinetic assay, spectrophotometric reduction of NAD+ at 340 nm; type: biochemical, E. coli; details: Examples 36/37, FIG. 16/17
Protocol: Reading of the samples was continued until 300 seconds. […] Cuvette #1 contained the control reaction (no inhibitor).
GAP for use in this experiment was deprotected from the diethyl acetal in the following manner. Water was boiled in recrystallizing dish. […] The tube was then immersed, while shaking, in the boiling water for 3 minutes.

[5] = molecular target: inosine-5′-monophosphate dehydrogenase (IMPDH); test: IMPDH kinetic assay, spectrophotometric reduction of NAD+ at 340 nm; type: biochemical; details: for IC50: Examples 36/37, FIG. 16/17
Protocol: Solutions of 100 μl of the inhibitors in DMSO were prepared to provide a final DMSO concentration of 5% of the total assay volume. These solutions were incubated for 6 minutes at 37° C. in a 992 μl of a solution containing 0.1 M Tris-HCl, pH 8.0, 0.25 M KCl, 0.3% glycerol, 30 μM NAD+, and 600 μM IMP (inosine monophosphate). The reaction was then initiated with 8 μμl of IMPDH (0.75 μg/ml). […] Reading of the samples was continued until 300 seconds. Cuvette #1 contained the control reaction (no inhibitor), and cuvette #2 contained the positive control reaction in which Cibacron Blue was substituted for inhibitor. The substrate was kept at a level at least 10 times the Km.

[6] = molecular target: isopropylmalate dehydrogenase (IPMDH) (Escherichia coli, UniProt P30125); test: IPMDH kinetic assay, spectrophotometric reduction of NAD at 340 nm; type: biochemical, E. coli; details: Examples 36/37, FIG. 16/17
Protocol: Inhibitor was incubated for 5 minutes at 37° C. in a 990 μl of a solution containing 20 mM potassium phosphate, pH 7.6, 0.3 M potassium chloride, 0.2 mM manganese chloride, 109 μM NAD, and 340 μM DL-threo-3-isopropylmalic acid (IPM). […] Reading of the samples was continued until 300 seconds. The final concentration of DMSO in the cuvette was 5% of the total assay volume. […] The substrate was kept at a level at least 10 times the Km.

[7] = molecular target: Human Aldose Reductase (AR) (Homo sapiens, UniProt P15121); test: AR kinetic assay, spectrophotometric measurement of enzyme activity at 340 nm; type: biochemical
Protocol: (§1) Solutions of 100 μl of the inhibitors in DMSO were prepared to provide a final DMSO concentration of 5% of the total assay volume. […] The reaction was then initiated with 10 μl of Human Aldose Reductase (1:5 dilution of 0.55 mg/ml). […] Reading of the samples was continued until 300 seconds. The final DMSO concentration in the cuvette was 5%. […] The substrate was kept at a level at least 10 times the Km.

[8] = molecular target: 1-deoxy-D-xylulose-5-phosphate reductase (DOXPR) (Escherichia coli, UniProt P45568); test: DOXPR kinetic assay, spectrophotometric oxidation of NADPH at 340 nm; type: biochemical; details: Examples 36/37, FIG. 16/17
Protocol: DOXPR was diluted in 10 mM HEPES at a pH of 7.4.
Solutions of the inhibitors in DMSO were prepared to provide a final DMSO concentration of 5% of the total assay volume. […] The oxidation reaction was then initiated with 10 μl of DOXP reductoisomerase (10 μg/ml). […] Reading of the samples was continued until 300 seconds. […] The substrate was kept at a level at least 10 times the Km.

[9] = molecular target: T2, HMG CoA reductase (HMGCoAR) (UniProt P04035); test: HMGCoAR kinetic assay, spectrophotometric oxidation of NADPH at 340 nm; type: biochemical; details: Examples 36/37, FIG. 16/17
T2 sequence (P04035 1-888): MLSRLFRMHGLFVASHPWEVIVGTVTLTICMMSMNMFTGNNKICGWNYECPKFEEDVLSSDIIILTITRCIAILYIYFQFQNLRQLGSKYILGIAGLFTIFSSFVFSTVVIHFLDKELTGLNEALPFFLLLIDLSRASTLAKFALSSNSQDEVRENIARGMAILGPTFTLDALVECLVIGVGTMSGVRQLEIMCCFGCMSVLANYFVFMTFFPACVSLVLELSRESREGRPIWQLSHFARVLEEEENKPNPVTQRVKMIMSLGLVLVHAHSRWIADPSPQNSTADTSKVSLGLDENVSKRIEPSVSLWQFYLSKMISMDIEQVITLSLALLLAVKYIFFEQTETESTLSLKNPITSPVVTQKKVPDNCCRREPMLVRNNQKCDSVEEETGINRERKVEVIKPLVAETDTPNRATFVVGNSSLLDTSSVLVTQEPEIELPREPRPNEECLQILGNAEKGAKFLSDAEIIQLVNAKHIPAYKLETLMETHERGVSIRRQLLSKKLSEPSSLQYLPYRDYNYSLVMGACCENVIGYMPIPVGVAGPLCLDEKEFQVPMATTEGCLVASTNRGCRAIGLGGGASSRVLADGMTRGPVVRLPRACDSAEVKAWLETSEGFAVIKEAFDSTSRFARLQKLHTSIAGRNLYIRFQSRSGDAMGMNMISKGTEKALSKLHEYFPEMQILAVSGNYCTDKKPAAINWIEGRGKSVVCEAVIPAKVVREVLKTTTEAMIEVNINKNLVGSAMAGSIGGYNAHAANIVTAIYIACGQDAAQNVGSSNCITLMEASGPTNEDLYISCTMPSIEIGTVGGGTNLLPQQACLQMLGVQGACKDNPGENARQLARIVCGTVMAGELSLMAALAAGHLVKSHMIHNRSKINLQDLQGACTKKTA
Protocol: For HMGCoAR analysis, the compounds were screened using a kinetic protocol that spectrophotometrically evaluates oxidation of NADPH.
Stock solutions of each of the reagents were prepared in the following concentrations. Dilutions of the stock solutions were prepared prior to running the assay in the concentrations indicated below. The enzyme was diluted in 1 M NaCl. To prepare the dilution buffer, 10 μl of HMGCoAR (1 mg/ml) was mixed with 133 μl of 3 M NaCl solution and 257 μl of 25 mM KH2PO4 buffer (pH 7.5; containing 50 mM NaCl, μl mM EDTA (ethylenediaminetetraacetic acid), and 5 mM DTT (dithiothreitol).
The HMGCoAR reaction was monitored at 340 nm prior to and after addition of the inhibitor to detect background reaction with the inhibitor. Solutions of 500 nM of the inhibitors in DMSO were prepared to provide a final DMSO concentration of 2% of the total assay volume. […] The reaction was then initiated with 5 μl of HMGCoAR enzyme (1:40 dilution of 0.65 mg/ml). After the enzyme was added, the solution was mixed for 20 seconds, and the reaction was run for 10 minutes. After a 50 second lag, the samples were read in a Cary spectrophotometer at 340 nm. Reading of the samples was continued until 300 seconds. […] The substrate was kept at a level at least 10 times the Km.

[10] = molecular target: T3, lactate dehydrogenase (LDH) (Oryctolagus cuniculus, UniProt P13491); test: LDH kinetic assay, spectrophotometric oxidation of NADH at 340 nm; type: biochemical, Rabbit
T3 construct: LDH from Rabbit Muscle; from tissue; host or cells: rabbit muscle
Protocol: as §1, with “LDH from Rabbit Muscle (0.5 μ/ml; 1:2000” for “Human Aldose Reductase (1:5”, “1.0” for “0.55”, “seconds.” for “seconds. The final DMSO concentration in the cuvette was 5%.”

dihydrofolate reductase (DHFR), sequence (P00374 whole entry): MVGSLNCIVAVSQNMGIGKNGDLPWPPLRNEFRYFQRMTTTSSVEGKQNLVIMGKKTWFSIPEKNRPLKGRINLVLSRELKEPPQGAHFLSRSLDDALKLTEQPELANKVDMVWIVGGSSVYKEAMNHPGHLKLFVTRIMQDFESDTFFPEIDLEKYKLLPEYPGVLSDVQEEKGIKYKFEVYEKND
1-deoxy-D-xylulose-5-phosphate reductase (DOXPR), sequence (P45568 whole entry): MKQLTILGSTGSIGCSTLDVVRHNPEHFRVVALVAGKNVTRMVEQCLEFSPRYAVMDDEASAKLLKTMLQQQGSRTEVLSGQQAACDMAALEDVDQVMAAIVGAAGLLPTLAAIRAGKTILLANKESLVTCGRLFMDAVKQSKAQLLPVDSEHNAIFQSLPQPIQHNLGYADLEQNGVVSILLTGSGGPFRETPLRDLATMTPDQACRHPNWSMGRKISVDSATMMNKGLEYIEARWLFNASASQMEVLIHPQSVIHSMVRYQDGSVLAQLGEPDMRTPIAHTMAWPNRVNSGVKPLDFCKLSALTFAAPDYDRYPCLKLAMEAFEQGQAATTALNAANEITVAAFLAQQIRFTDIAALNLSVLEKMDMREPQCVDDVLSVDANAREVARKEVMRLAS
glyceraldehyde-3-phosphate dehydrogenase (GAPDH), sequence (P0A9B2 whole entry): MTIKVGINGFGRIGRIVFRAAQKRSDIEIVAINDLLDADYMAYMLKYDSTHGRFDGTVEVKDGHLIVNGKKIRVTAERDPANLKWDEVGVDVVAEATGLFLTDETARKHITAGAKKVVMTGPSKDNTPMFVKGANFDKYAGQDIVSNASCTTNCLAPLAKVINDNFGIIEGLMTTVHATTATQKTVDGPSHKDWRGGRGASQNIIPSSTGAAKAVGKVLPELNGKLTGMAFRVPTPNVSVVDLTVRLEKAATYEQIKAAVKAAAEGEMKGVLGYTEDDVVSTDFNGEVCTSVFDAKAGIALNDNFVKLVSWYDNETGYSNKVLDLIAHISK
dihydrodipicolinate reductase (DHPR), sequence (P04036 whole entry): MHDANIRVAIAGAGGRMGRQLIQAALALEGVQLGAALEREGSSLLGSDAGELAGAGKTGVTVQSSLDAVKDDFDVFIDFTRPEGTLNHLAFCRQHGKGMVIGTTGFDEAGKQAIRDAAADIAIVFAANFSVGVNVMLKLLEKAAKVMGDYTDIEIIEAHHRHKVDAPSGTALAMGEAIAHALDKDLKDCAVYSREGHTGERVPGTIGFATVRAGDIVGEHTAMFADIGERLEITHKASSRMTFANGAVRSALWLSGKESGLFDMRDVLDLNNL
isopropylmalate dehydrogenase (IPMDH), sequence (P30125 whole entry): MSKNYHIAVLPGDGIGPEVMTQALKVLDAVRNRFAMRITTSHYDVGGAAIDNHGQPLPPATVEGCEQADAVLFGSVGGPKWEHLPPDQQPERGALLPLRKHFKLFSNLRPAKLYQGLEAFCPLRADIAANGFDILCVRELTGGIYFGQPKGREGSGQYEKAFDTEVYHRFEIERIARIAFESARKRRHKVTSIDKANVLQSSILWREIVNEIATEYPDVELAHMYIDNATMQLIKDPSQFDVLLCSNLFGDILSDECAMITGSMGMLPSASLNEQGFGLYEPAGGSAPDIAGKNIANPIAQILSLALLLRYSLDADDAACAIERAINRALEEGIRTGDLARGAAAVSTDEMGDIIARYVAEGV

SMILES | IC50 ([1]; read-out: IC50 for DHPR) [µM] | IC50 [2] | inhibition of DHFR ([3]; Example 37, result in words) | IC50 ([3]; Examples 36/37, FIG. 16/17; read-out: IC50 for DHFR) [µM] | IC50 ([4]; read-out: IC50 for GAPDH) [µM] | IC50 [5] [µM] | IC50 ([5]; listed as Sa) [µM] | IC50 [6] [µM] | IC50 ([7]; Examples 36/37, FIG. 16/17) | IC50 ([1]; IC50 for DHPR) [µM] | IC50 ([8]; IC50 for DOXPR) [µM] | IC50 ([4]; IC50 for GAPDH) [µM] | inhibition of IMPDH ([5]; Example 37, result in words) | IC50 [9] [µM] | IC50 ([10]; Examples 36/37, FIG. 16/17) [µM] | IC50 ([8]; read-out: IC50 for DOXPR) [µM] | inhibition of AR ([7]; Examples 36/37, result in words) | IC50 ([10]; Example 37, FIG. 17) [µM] | IC50 ([3]; read-out: IC50 for DHFR; Examples 36/37, FIG. 16/17) [µM]
O=C1NC(=O)C(=Cc2ccc(-c3ccc(C(=O)O)cc3)o2)S1 [Compound 5a, 4-[5-(2,4-dioxo-thiazolidin-5-ylidenemethyl)-furan-2-yl]-benzoic acid] | > 200 | 116 µM and 140 µM | No inhibiiton | > 75 | > 200 | 58.8 | > 200 | > 200 | 2.26 µM and 4.1 µM | – | – | – | – | – | – | – | – | – | –
O=C1NC(=O)C(=Cc2ccc(-c3cccc(C(=O)O)c3)o2)S1 [Compound 5b, 3-[5-(2,4-dioxo-thiazolidin-5-ylidenemethyl)-furan-2-yl]-benzoic acid] | – | – | – | – | – | – | – | – | – | > 400 | > 400 | > 400 | No inhibition | > 400 | – | – | – | – | –
O=C1NC(=O)C(=Cc2ccc(-c3ccc(O)c(C(=O)O)c3)o2)S1 [Compound 5e, 5-[5-(2,4-dioxo-thiazolidin-5-ylidenemethyl)-furan-2-yl]-2-hydroxy-benzoic acid] | > 200 | 21 µM | No inhibition | – | > 200 | 2.15 | – | > 50 | – | – | – | – | – | – | 46 | > 100 | No inhibition | – | –
O=C1NC(=S)SC1=Cc1ccc(-c2ccc(O)c(C(=O)O)c2)o1 [Compound 7e, 2-hydroxy-5-[5-(4-oxo-2-thioxo-thiazolidin-5-ylidenemethyl)-furan-2-yl]-benzoic acid] | – | 3.4 µM | – | – | – | – | – | – | – | 2.1 | 1.6 | – | – | 0.143 | – | – | – | 0.34 | 4.3
